# Measurements reported in ChEMBL document CHEMBL3112450, “Synthesis and in vitro antitumor evaluation of primary amine substituted quinazoline linked benzimidazole” (Bioorg Med Chem Lett, 2014).
# How the values were obtained:
# Assay type in all cases: functional
# [1] = Cytotoxicity against human OVCAR5 cells assessed as growth inhibition at 10 uM after 48 hrs by SRB assay; details: OVCAR-5, 48 h, read-out: GI
# SNB-19 = experiment: Cytotoxicity against human SNB19 cells assessed as growth inhibition at 10 uM after 48 hrs by SRB assay; details: SNB-19, 48 h, read-out: GI
# [2] = Cytotoxicity against human EKVX cells assessed as growth inhibition at 10 uM after 48 hrs by SRB assay; details: read-out: GI
# DU-145 = experiment: Cytotoxicity against human DU145 cells assessed as growth inhibition at 10 uM after 48 hrs by SRB assay; details: DU-145, 48 h, read-out: GI
# SN12C = experiment: Cytotoxicity against human SN12C cells assessed as growth inhibition at 10 uM after 48 hrs by SRB assay; details: read-out: GI
# ACHN = experiment: Cytotoxicity against human ACHN cells assessed as growth inhibition at 10 uM after 48 hrs by SRB assay; details: read-out: GI
# OVCAR-3 = experiment: Cytotoxicity against human OVCAR3 cells assessed as growth inhibition at 10 uM after 48 hrs by SRB assay; details: OVCAR-3, 48 h, read-out: GI
# IGROV-1 = experiment: Cytotoxicity against human IGROV1 cells assessed as growth inhibition at 10 uM after 48 hrs by SRB assay; details: IGROV-1, 48 h, read-out: GI
# UACC-62 = experiment: Cytotoxicity against human UACC62 cells assessed as growth inhibition at 10 uM after 48 hrs by SRB assay; details: UACC-62, 48 h, read-out: GI
# SK-MEL-28 = experiment: Cytotoxicity against human SK-MEL-28 cells assessed as growth inhibition at 10 uM after 48 hrs by SRB assay; details: SK-MEL-28, 48 h, read-out: GI
# M14 = experiment: Cytotoxicity against human M14 cells assessed as growth inhibition at 10 uM after 48 hrs by SRB assay; details: M14, 48 h, read-out: GI
# LOX IMVI = experiment: Cytotoxicity against human LOXIMVI cells assessed as growth inhibition at 10 uM after 48 hrs by SRB assay; details: read-out: GI
# SNB-75 = experiment: Cytotoxicity against human SNB75 cells assessed as growth inhibition at 10 uM after 48 hrs by SRB assay; details: SNB-75, 48 h, read-out: GI
# SF-268 = experiment: Cytotoxicity against human SF268 cells assessed as growth inhibition at 10 uM after 48 hrs by SRB assay; details: SF-268, 48 h, read-out: GI
# NCI-H522 = experiment: Cytotoxicity against human NCI-H522 cells assessed as growth inhibition at 10 uM after 48 hrs by SRB assay; details: NCI-H522, 48 h, read-out: GI
# NCI-H460 = experiment: Cytotoxicity against human NCI-H460 cells assessed as growth inhibition at 10 uM after 48 hrs by SRB assay; details: NCI-H460, 48 h, read-out: GI
# HL-60(TB) = experiment: Cytotoxicity against human HL-60(TB) cells assessed as growth inhibition at 10 uM after 48 hrs by SRB assay; details: HL-60, 48 h, read-out: GI
# MOLT-4 = experiment: Cytotoxicity against human MOLT4 cells assessed as growth inhibition at 10 uM after 48 hrs by SRB assay; details: MOLT-4, 48 h, read-out: GI
smiles,measurement,setting,value
C=CCn1c(C)nc2ccc(Nc3nc(Nc4ccc5nc(C)n(CC=C)c5c4)c4ccccc4n3)cc21,inhibition of growth at 10 µM,[1],70%
same,inhibition of growth at 10 µM,SNB-19,50%
same,inhibition of growth at 10 µM,[2],90%
C=CCn1c(C)nc2ccc(Nc3nc(Nc4ccc(F)cc4)nc4ccccc34)cc21,inhibition of growth at 10 µM,DU-145,30%
same,inhibition of growth at 10 µM,SN12C,30%
same,inhibition of growth at 10 µM,ACHN,30%
same,inhibition of growth at 10 µM,OVCAR-3,40%
same,inhibition of growth at 10 µM,IGROV-1,40%
same,inhibition of growth at 10 µM,UACC-62,30%
same,inhibition of growth at 10 µM,SK-MEL-28,30%
same,inhibition of growth at 10 µM,M14,50%
same,inhibition of growth at 10 µM,LOX IMVI,50%
same,inhibition of growth at 10 µM,SNB-75,40%
same,inhibition of growth at 10 µM,SF-268,30%
same,inhibition of growth at 10 µM,NCI-H522,40%
same,inhibition of growth at 10 µM,NCI-H460,30%
same,inhibition of growth at 10 µM,HL-60(TB),40%
C=CCn1c(C)nc2cc(Nc3nc(NCCO)nc4ccccc34)ccc21,inhibition of growth at 10 µM,MOLT-4,40%
